Data published in PMC6813166 (CPT: Pharmacometrics & Systems Pharmacology, 2019).

Columns and labels:
Population PK analysis = assay type: in vivo, human; details: for V1, final model estimate (RSE%): apparent volume of the central compartment; for V2, final model estimate (RSE%): apparent volume of the peripheral compartment; for BSV in V1, final model CV% (shrink) / BSV in V2, final model CV% (shrink): between-subject variability; for Q, final model estimate (RSE%): intercompartmental clearance; for CL, final model estimate (RSE%): population PK, healthy volunteers and patients, i.v. infusion; for Covariate on CL: CrCL (power), final model estimate (RSE%): power relationship centered on the median; for Proportional Error, final model CV% (shrink): residual variability
[1] = imipenem monotherapy, in vivo animal models; cited from earlier work
[2] = patients; cited from earlier work
[3] = Simulation of upper and lower clinical bounds of exposure; parameters: species or system human
[4] = tested on: Pseudomonas aeruginosa and Enterobacteriaceae; details: HF model; cited from earlier work
[5] = 625 mg q6h for 7 days, healthy adult volunteers; cited from earlier work

V1, final model estimate (RSE%) (Population PK analysis) | V2, final model estimate (RSE%) (Population PK analysis) | BSV in V1, final model CV% (shrink) (Population PK analysis) | BSV in V2, final model CV% (shrink) (Population PK analysis) | BSV in V1, bootstrap CV% (Population PK analysis; bootstrap n = 1,000) [CV%] | BSV in V2, bootstrap CV% (Population PK analysis; bootstrap n = 1,000) [CV%] | CL, bootstrap estimate (RSE%) (Population PK analysis; bootstrap n = 1,000) | Covariate on CL: CrCL (power), bootstrap estimate (RSE%) (Population PK analysis; bootstrap n = 1,000) | Covariate on V1: WT (power), bootstrap estimate (RSE%) (Population PK analysis; bootstrap n = 1,000) | Proportional Error, bootstrap CV% (Population PK analysis; bootstrap n = 1,000) [CV%] | Q, bootstrap estimate (RSE%) (Population PK analysis; bootstrap n = 1,000) | V1, bootstrap estimate (RSE%) (Population PK analysis; bootstrap n = 1,000) | V2, bootstrap estimate (RSE%) (Population PK analysis; bootstrap n = 1,000) | Q, final model estimate (RSE%) (Population PK analysis) | CL, final model estimate (RSE%) (Population PK analysis) | Covariate on CL: CrCL (power), final model estimate (RSE%) (Population PK analysis) | Proportional Error, final model CV% (shrink) (Population PK analysis) | SMILES | Covariate on V1: WT (power), final model estimate (RSE%) (Population PK analysis; body weight) | other results
15.83 (3.2) L | 5.84 (4.0) L | 74.4 (7.4) CV% | 35.0 (52.9) CV% | 74.2 | 34.8 | 12.53 (2.0) L/hour | 0.46 (8.0) | 0.76 (21.6) | 16.1 | 11.15 (6.7) L/hour | 15.76 (3.4) L | 5.86 (3.9) L | 11.09 (6.5) L/hour | 12.53 (2.0) L/hour | 0.46 (8.1) | 16.1 (19.0) CV% | C[C@@H](O)[C@H]1C(=O)N2C(C(=O)O)=C(SCCN=CN)C[C@H]12 [imipenem] | 0.74 (19.1) | Covariate on CL: WT (power), final model estimate (RSE%) (Population PK analysis; body weight): 0.33 (30.5); Covariate on CL: WT (power), bootstrap estimate (RSE%) (Population PK analysis; bootstrap n = 1,000): 0.34 (32.2); Covariate on V1: Healthy, bootstrap estimate (RSE%) (Population PK analysis; bootstrap n = 1,000): −0.28 (10.0); Covariate on V1: Healthy, final model estimate (RSE%) (Population PK analysis; proportional change, healthy volunteers vs patients): −0.29 (9.5); fT > MIC required to achieve 1-log kill to 2-log kill [1]: ~ 30%; concentration lower in peritoneal fluid than in plasma, on average [2]: 25%
11.08 (2.9) L | 6.41 (3.8) L | 59.5 (18.8) CV% | 41.1 (49.8) CV% | 59.4 | 41.0 | 7.02 (2.0) L/hour | 0.75 (8.3) | 0.72 (17.9) | 15.3 | 10.48 (7.0) L/hour | 11.06 (2.9) L | 6.43 (3.6) L | 10.45 (6.8) L/hour | 7.02 (2.0) L/hour | 0.75 (8.3) | 15.3 (14.1) CV% | O=C(NC1CCNCC1)[C@@H]1CC[C@@H]2CN1C(=O)N2OS(=O)(=O)O [relebactam] | 0.70 (15.8) | AUC0-24 hours target [3]: 76.9 µM·h; fAUC0-24 hours/MIC required to achieve 2-log kill [4]: ≥ 7.5; safety and tolerability [5]: safe and well tolerated
